Measured values: patent publication US20230201301A1 (priority 2020, published 2023)

Tested on: inflammatory cell-types in the lungs
Set-up: species or system transgenic mice B6.Cg-Tg(K18-ACE2)2Prlmn/J
Details: mouse, in vivo, ip

## LQEEDTGEYGCV (TLT-1 peptide) [LR12]
  CD4+ T cells in lungs vs vehicle: no effect
  CD8+ T cells in lungs vs vehicle: no effect
  CD45+ cells in lungs vs vehicle: decrease
  NK cells in lungs vs vehicle: no effect
  NKT cells in lungs vs vehicle: lower number
  number of monocytes-derived macrophages in lungs vs vehicle: lower
  number of neutrophils in lungs vs vehicle: lower
  total number of cells in lungs vs vehicle: did not differ
